Results reported in the supplement of paper PMC8671470.
± gives the standard deviation of the averaged measurements.

Columns and labels:
Details in all cases: 72 h
[1] = test system: BV-173
Method in brief: (§1)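 Seeded in RPMI 1640 at densities within the linear growth range, fifteen myeloid leukaemia cell lines were dispensed into 384-well plates with acoustically pre-printed compounds spanning five tenfold doses from 1 to 10,000 nM, in duplicate. The plates were kept for 72 h at 37 °C in 5% CO2 before luminescent ATP viability was measured and normalised to vehicle and to a positive control at 10 µM. Curves were fitted with a four-parameter log-logistic model. The IC50 was taken from those curves.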

[2] = test system: HEL
Method in brief: as §1

[3] = test system: HL-60
Method in brief: as §1

[4] = test system: K-562
Method in brief: as §1

[5] = test system: KCL-22
Method in brief: as §1

[6] = test system: KG-1
Method in brief: as §1

[7] = test system: KU-812
Method in brief: as §1

[8] = test system: LAMA-84
Method in brief: as §1

[9] = test system: ML-2
Method in brief: as §1

[10] = test system: MOLM-13
Method in brief: as §1

[11] = test system: MV4-11
Method in brief: as §1

[12] = test system: Mono-Mac-6
Method in brief: as §1

[13] = test system: NOMO-1
Method in brief: as §1

[14] = test system: SHI-1
Method in brief: as §1

[15] = test system: THP-1
Method in brief: as §1

[16] = test system: HL-60; assay: cell viability (% survival relative to DMSO control); higher = less cytotoxic
Method in brief: (§2)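 HL-60 cells grown in RPMI 1640 with 10% FBS were rescreened against the full library in 384-well plates, in duplicate, at five tenfold concentrations from 1 to 10,000 nM, alongside DMSO or 100 nM of one of three metabolic inhibitors for 72 h at 37 °C, 5% CO2. Reference wells contained DMSO or 10 μM proteasome inhibitor. Viability was read with CellTiter-Glo and normalised to these reference wells, and where reported, area under the curve was taken from four-parameter log-logistic fits in drc and PharmacoGx.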

[17] = test system: BV-173; assay: cell viability (% survival relative to DMSO control, bortezomib = 0%); higher = less cytotoxic
Method in brief: (§3)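 Fifteen myeloid leukaemia cell lines were exposed to compounds at 1, 10, 100, 1000 or 10000 nM in 384-well plates for 72 h at 37 °C and 5% CO2. Viability was read by CellTiter-Glo luminescence and normalised, with vehicle as 100% and a 10 µM positive control as 0%. Values are percent survival averaged over duplicates.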

[18] = test system: HEL; assay: as above
Method in brief: as §3

[19] = test system: HL-60; assay: as above
Method in brief: as §3

[20] = test system: K-562; assay: as above
Method in brief: as §3

[21] = test system: KCL-22; assay: as above
Method in brief: as §3

[22] = test system: KU-812; assay: as above
Method in brief: as §3

[23] = test system: LAMA-84; assay: as above
Method in brief: as §3

[24] = test system: ML-2; assay: as above
Method in brief: as §3

[25] = test system: Mono-Mac-6; assay: as above
Method in brief: as §3

[26] = test system: NOMO-1; assay: as above
Method in brief: as §3

[27] = test system: SHI-1; assay: as above
Method in brief: as §3

[28] = test system: HL-60; assay: area under dose-response curve (viability, 1 nM-10 uM) (fraction (0-1)); higher = more sensitive
Method in brief: as §2

## COc1ccc2c(C(=S)N(C)CC(=O)O)cccc2c1C(F)(F)F [Tolrestat]
[1]
  IC50 (cell viability): > 10 µM
[2]
  IC50 (cell viability): > 10 µM
[3]
  IC50 (cell viability): > 10 µM
[4]
  IC50 (cell viability): > 10 µM
[5]
  IC50 (cell viability): > 10 µM
[6]
  IC50 (cell viability): > 10 µM
[7]
  IC50 (cell viability): > 10 µM
[8]
  IC50 (cell viability): > 10 µM
[9]
  IC50 (cell viability): > 10 µM
[10]
  IC50 (cell viability): > 10 µM
[11]
  IC50 (cell viability): > 10 µM
[12]
  IC50 (cell viability): > 10 µM
[13]
  IC50 (cell viability): > 10 µM
[14]
  IC50 (cell viability): > 10 µM
[15]
  IC50 (cell viability): > 10 µM
[16]; 0.001 µM, co-treatment: AZD3965 100 nM
  cell viability: 97.3 ± 1.8%
[16]; 0.001 µM, co-treatment: DMSO vehicle
  cell viability: 96 ± 0.68%
[16]; 0.001 µM, co-treatment: GSK2194069 100 nM
  cell viability: 99 ± 1.9%
[16]; 0.001 µM, co-treatment: pictilisib 100 nM
  cell viability: 95.7 ± 3%
[16]; 0.01 µM, co-treatment: AZD3965 100 nM
  cell viability: 106 ± 5.3%
[16]; 0.01 µM, co-treatment: DMSO vehicle
  cell viability: 106 ± 3.4%
[16]; 0.01 µM, co-treatment: GSK2194069 100 nM
  cell viability: 104.6 ± 0.97%
[16]; 0.01 µM, co-treatment: pictilisib 100 nM
  cell viability: 104 ± 8.2%
[16]; 0.1 µM, co-treatment: AZD3965 100 nM
  cell viability: 104 ± 3.8%
[16]; 0.1 µM, co-treatment: DMSO vehicle
  cell viability: 104 ± 2.6%
[16]; 0.1 µM, co-treatment: GSK2194069 100 nM
  cell viability: 97.5 ± 1.3%
[16]; 0.1 µM, co-treatment: pictilisib 100 nM
  cell viability: 96.8 ± 5.6%
[16]; 1 µM, co-treatment: AZD3965 100 nM
  cell viability: 97.9 ± 4.6%
[16]; 1 µM, co-treatment: DMSO vehicle
  cell viability: 99.23 ± 0.18%
[16]; 1 µM, co-treatment: GSK2194069 100 nM
  cell viability: 94.1 ± 4.1%
[16]; 1 µM, co-treatment: pictilisib 100 nM
  cell viability: 88.1 ± 8.6%
[16]; 10 µM, co-treatment: AZD3965 100 nM
  cell viability: 98.253 ± 0.033%
[16]; 10 µM, co-treatment: DMSO vehicle
  cell viability: 103.9 ± 0.94%
[16]; 10 µM, co-treatment: GSK2194069 100 nM
  cell viability: 97.1 ± 8.5%
[16]; 10 µM, co-treatment: pictilisib 100 nM
  cell viability: 100 ± 2%
[17]; 1 nM
  cell viability: 84.3%
[17]; 10 nM
  cell viability: 108%
[17]; 100 nM
  cell viability: 86.1%
[17]; 1000 nM
  cell viability: 88.5%
[17]; 10000 nM
  cell viability: 101%
[18]; 1 nM
  cell viability: 91.2%
[18]; 10 nM
  cell viability: 98.9%
[18]; 100 nM
  cell viability: 95%
[18]; 1000 nM
  cell viability: 93%
[18]; 10000 nM
  cell viability: 101%
[19]; 1 nM
  cell viability: 107%
[19]; 10 nM
  cell viability: 104%
[19]; 100 nM
  cell viability: 122%
[19]; 1000 nM
  cell viability: 49.1%
[19]; 10000 nM
  cell viability: 101%
[20]; 1 nM
  cell viability: 95.4%
[20]; 10 nM
  cell viability: 104%
[20]; 100 nM
  cell viability: 87.4%
[20]; 1000 nM
  cell viability: 99.8%
[20]; 10000 nM
  cell viability: 105%
[21]; 1 nM
  cell viability: 94.8%
[21]; 10 nM
  cell viability: 103%
[21]; 100 nM
  cell viability: 105%
[21]; 1000 nM
  cell viability: 106%
[21]; 10000 nM
  cell viability: 106%
[22]; 1 nM
  cell viability: 88.6%
[22]; 10 nM
  cell viability: 118%
[22]; 100 nM
  cell viability: 99.8%
[22]; 1000 nM
  cell viability: 90.8%
[22]; 10000 nM
  cell viability: 104%
[23]; 1 nM
  cell viability: 97.7%
[23]; 10 nM
  cell viability: 106%
[23]; 100 nM
  cell viability: 100%
[23]; 1000 nM
  cell viability: 95.6%
[23]; 10000 nM
  cell viability: 98.6%
[24]; 1 nM
  cell viability: 90.2%
[24]; 10 nM
  cell viability: 99%
[24]; 100 nM
  cell viability: 103%
[24]; 1000 nM
  cell viability: 111%
[24]; 10000 nM
  cell viability: 97.8%
[25]; 1 nM
  cell viability: 86.5%
[25]; 10 nM
  cell viability: 113%
[25]; 100 nM
  cell viability: 94.1%
[25]; 1000 nM
  cell viability: 113%
[25]; 10000 nM
  cell viability: 95.4%
[26]; 1 nM
  cell viability: 97.2%
[26]; 10 nM
  cell viability: 107%
[26]; 100 nM
  cell viability: 106%
[26]; 1000 nM
  cell viability: 118%
[26]; 10000 nM
  cell viability: 95.5%
[27]; 1 nM
  cell viability: 98.6%
[27]; 10 nM
  cell viability: 104%
[27]; 100 nM
  cell viability: 88.1%
[27]; 1000 nM
  cell viability: 108%
[27]; 10000 nM
  cell viability: 101%
[28]; co-treatment: AZD3965 100 nM
  area under dose-response curve: < 0.0301
[28]; co-treatment: DMSO vehicle
  area under dose-response curve: < 0.0301
[28]; co-treatment: GSK2194069 100 nM
  area under dose-response curve: < 0.0301
[28]; co-treatment: pictilisib 100 nM
  area under dose-response curve: < 0.0301
